Experimental data: patent publication US11180474B2 (BRISTOL-MYERS SQUIBB COMPANY, priority 2016, dated 2021)
pIC50: −log10 of the molar value.

Assays:
[1] = molecular target: T1, human TLR7 (Homo sapiens, UniProt Q9NYK1); assay: TLR7 inhibition reporter assay (HEK-Blue cells, SEAP reporter, gardiquimod stimulation); assay type: cell-based; settings: HEK-Blue cells overexpressing human TLR7, gardiquimod 7.5 μM
T1 construct: host or cells: HEK-Blue cells
T1 sequence (Q9NYK1 27-1049): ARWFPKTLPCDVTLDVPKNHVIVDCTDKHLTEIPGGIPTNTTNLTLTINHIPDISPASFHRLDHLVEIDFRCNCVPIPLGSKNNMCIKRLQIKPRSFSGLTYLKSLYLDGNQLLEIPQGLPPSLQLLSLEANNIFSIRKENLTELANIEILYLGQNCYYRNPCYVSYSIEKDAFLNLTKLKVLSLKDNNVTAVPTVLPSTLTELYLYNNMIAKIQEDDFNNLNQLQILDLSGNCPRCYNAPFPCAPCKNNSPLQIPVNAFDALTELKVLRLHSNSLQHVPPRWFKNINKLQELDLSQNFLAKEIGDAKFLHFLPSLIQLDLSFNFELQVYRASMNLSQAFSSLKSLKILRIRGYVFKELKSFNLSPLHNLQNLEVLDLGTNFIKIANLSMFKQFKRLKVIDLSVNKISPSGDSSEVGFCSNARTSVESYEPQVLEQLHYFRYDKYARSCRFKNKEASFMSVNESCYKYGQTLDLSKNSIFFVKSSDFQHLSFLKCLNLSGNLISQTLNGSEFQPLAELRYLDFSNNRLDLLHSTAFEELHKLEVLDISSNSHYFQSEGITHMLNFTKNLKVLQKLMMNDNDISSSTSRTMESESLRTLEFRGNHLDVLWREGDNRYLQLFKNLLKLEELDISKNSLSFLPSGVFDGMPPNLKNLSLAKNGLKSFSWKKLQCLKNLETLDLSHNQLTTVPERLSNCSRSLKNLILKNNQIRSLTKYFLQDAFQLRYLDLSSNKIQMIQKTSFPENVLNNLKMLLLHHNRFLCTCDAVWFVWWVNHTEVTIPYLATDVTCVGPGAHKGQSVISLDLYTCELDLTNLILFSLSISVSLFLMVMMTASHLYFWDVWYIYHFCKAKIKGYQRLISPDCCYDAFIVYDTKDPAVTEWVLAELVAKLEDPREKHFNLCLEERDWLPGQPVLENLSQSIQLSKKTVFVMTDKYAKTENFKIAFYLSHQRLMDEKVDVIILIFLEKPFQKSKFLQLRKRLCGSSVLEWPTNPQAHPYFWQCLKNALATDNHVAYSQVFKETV
In short: (§1)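 Cells (15000/well for TLR7, 20,000 for TLR8) were treated with compounds over 0.05 nM-50 μM final. After 22 h at 37° C, 5% CO2, SEAP was measured with HEK-Blue Detection reagent; percent inhibition was taken as reduction of agonist-plus-DMSO signal relative to a known inhibitor.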

[2] = molecular target: T2, human TLR8 (Homo sapiens, UniProt Q9NR97); assay: TLR8 inhibition reporter assay (HEK-Blue cells, SEAP reporter, R848 stimulation); assay type: cell-based; settings: HEK-Blue cells overexpressing human TLR8, R848 15.9 μM
T2 construct: host or cells: HEK-Blue cells
T2 sequence (Q9NR97 27-1041): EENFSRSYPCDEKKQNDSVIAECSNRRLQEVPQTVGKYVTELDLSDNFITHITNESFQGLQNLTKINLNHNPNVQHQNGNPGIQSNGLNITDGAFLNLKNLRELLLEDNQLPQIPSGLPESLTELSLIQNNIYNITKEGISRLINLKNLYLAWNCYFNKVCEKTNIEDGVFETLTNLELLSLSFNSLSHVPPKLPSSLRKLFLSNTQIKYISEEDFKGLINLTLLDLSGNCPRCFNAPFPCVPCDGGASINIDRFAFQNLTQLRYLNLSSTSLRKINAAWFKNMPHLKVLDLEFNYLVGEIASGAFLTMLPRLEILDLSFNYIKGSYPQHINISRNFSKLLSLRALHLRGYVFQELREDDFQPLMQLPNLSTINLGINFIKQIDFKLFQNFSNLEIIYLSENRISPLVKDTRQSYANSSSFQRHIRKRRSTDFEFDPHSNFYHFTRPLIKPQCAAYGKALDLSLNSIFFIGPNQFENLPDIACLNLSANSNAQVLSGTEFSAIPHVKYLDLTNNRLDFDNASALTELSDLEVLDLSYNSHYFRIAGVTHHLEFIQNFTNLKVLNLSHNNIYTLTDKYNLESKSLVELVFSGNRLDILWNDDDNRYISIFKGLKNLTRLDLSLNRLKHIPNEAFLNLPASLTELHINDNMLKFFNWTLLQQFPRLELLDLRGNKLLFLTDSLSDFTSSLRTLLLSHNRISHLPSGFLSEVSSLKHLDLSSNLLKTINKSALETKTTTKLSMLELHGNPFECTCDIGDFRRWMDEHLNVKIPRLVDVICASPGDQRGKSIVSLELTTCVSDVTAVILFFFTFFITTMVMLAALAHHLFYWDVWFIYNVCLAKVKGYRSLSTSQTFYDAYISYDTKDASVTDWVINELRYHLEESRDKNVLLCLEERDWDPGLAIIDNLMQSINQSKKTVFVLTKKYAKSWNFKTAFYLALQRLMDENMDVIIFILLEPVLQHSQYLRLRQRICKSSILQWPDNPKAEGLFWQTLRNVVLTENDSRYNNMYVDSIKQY
In short: as §1

For `COc1ccc(-c2[nH]c3ccc(C4CCN(C(=O)CN5CCC[C@H](C(=O)N6CCN(C(C)C)CC6)C5)CC4)cc3c2C(C)C)cc1OC` [Example 286, (S)-1-(4-(2-(3,4-dimethoxyphenyl)-3-isopropyl-1H-indol-5-yl)piperidin-1-yl)-2-(3-(4-isopropylpiperazine-1-carbonyl)piperidin-1-yl)ethan-1-one], the pIC50 [1] was 8.30 and the pIC50 [2] was 7.77.

Work on `COc1ccc(-c2[nH]c3ccc(C4CCN(C(=O)CN5CCC[C@H](C(=O)NC6(CO)CCCC6)C5)CC4)cc3c2C(C)C)cc1OC` [Example 296, (S)-1-(2-(4-(2-(3,4-dimethoxyphenyl)-3-isopropyl-1H-indol-5-yl)piperidin-1-yl)-2-oxoethyl)-N-(1-(hydroxymethyl)cyclopentyl)piperidine-3-carboxamide] yielded a pIC50 [1] of 7.46 and a pIC50 [2] of 7.66.

Compound `COc1ccc(-c2[nH]c3ccc(C4CCN(C(=O)CN[C@H](CO)CC(C)C)CC4)cc3c2C(C)C)cc1OC` [Example 231, (S)-1-(4-(2-(3,4-dimethoxyphenyl)-3-isopropyl-1H-indol-5-yl)piperidin-1-yl)-2-((1-hydroxy-4-methylpentan-2-yl)amino)ethan-1-one] has a pIC50 [1] of 7.02 and a pIC50 [2] of 7.20.

`COc1ccc(-c2[nH]c3ccc(C4CCN(C(=O)CNC5CCC(C(C)(C)O)CC5)CC4)cc3c2C(C)C)cc1OC` (centres unmarked) [Example 245, 1-(4-(2-(3,4-dimethoxyphenyl)-3-isopropyl-1H-indol-5-yl)piperidin-1-yl)-2-((4-(2-hydroxypropan-2-yl)cyclohexyl)amino)ethan-1-one] showed a pIC50 [1] of 7.59 and a pIC50 [2] of 7.59.

With `COc1ccc(-c2[nH]c3ccc(C4CCN(C(=O)CN5CCC[C@H](C(=O)N6CCN(Cc7ccc(Br)cc7)CC6)C5)CC4)cc3c2C(C)C)cc1OC` [Example 294, (S)-2-(3-(4-(4-bromobenzyl)piperazine-1-carbonyl)piperidin-1-yl)-1-(4-(2-(3,4-dimethoxyphenyl)-3-isopropyl-1H-indol-5-yl)piperidin-1-yl)ethan-1-one] the pIC50 [1] was 5.92 and the pIC50 [2] was 6.26.

Work on `COc1ccc(-c2[nH]c3ccc(C4CCN(C(=O)CN5CCC[C@H](C(=O)N6CC7CNCC7C6)C5)CC4)cc3c2C(C)C)cc1OC` (some centres unmarked) [Example 299, 1-(4-(2-(3,4-dimethoxyphenyl)-3-isopropyl-1H-indol-5-yl)piperidin-1-yl)-2-((3 S)-3-(octahydropyrrolo[3,4-c]pyrrole-2-carbonyl)piperidin-1-yl)ethan-1-one] yielded a pIC50 [1] of 6.69 and a pIC50 [2] of 6.89.

In the case of `CCC(CO)NCC(=O)N1CCC(c2ccc3[nH]c(-c4ccc(OC)c(OC)c4)c(C(C)C)c3c2)CC1` (centres unmarked) [Example 233, 1-(4-(2-(3,4-dimethoxyphenyl)-3-isopropyl-1H-indol-5-yl)piperidin-1-yl)-2-((1-hydroxybutan-2-yl)amino)ethan-1-one], the pIC50 [1] was 7.64 and the pIC50 [2] was 7.57.

`COc1ccc(-c2[nH]c3ccc(C4CCN(CC(=O)NC5CCN(C(C)C)CC5)CC4)cc3c2C(C)C)cc1OC` [Example 273, 2-(4-(2-(3,4-dimethoxyphenyl)-3-isopropyl-1H-indol-5-yl)piperidin-1-yl)-N-(1-isopropylpiperidin-4-yl)acetamide] was tested, and the pIC50 [1] was 8.15 and the pIC50 [2] was 7.54.

Work on `COc1ccc(-c2[nH]c3ccc(C4CCN(C(=O)CN5CCC[C@H](C(=O)N(C)C(C)C)C5)CC4)cc3c2C(C)C)cc1OC` [Example 288, (S)-1-(2-(4-(2-(3,4-dimethoxyphenyl)-3-isopropyl-1H-indol-5-yl)piperidin-1-yl)-2-oxoethyl)-N-isopropyl-N-methylpiperidine-3-carboxamide] yielded a pIC50 [1] of 7.36 and a pIC50 [2] of 7.49.

`COc1ccc(-c2[nH]c3ccc(C4CCN(C(=O)CN5CCC[C@@H](C(=O)N6CCCC6)C5)CC4)cc3c2C(C)C)cc1OC` [Example 303, (R)-1-(4-(2-(3,4-dimethoxyphenyl)-3-isopropyl-1H-indol-5-yl)piperidin-1-yl)-2-(3-(pyrrolidine-1-carbonyl)piperidin-1-yl)ethan-1-one] showed a pIC50 [1] of 7.52 and a pIC50 [2] of 7.51.
